Drawing on patent US20130131075A1, “NEW COMPOUNDS” (Boehringer Ingelheim International GmbH, priority 2009, published 2013), this text covers inhibition and Ki for 48 compounds.

This assay concerns the target T1, cynomolgus BK1-receptor (Macaca fascicularis, UniProt Q3BCU0).
T1 construct: expressed in transfected cells; host or cells: CHO cells (homogenate)
T1 sequence (Q3BCU0 1-352): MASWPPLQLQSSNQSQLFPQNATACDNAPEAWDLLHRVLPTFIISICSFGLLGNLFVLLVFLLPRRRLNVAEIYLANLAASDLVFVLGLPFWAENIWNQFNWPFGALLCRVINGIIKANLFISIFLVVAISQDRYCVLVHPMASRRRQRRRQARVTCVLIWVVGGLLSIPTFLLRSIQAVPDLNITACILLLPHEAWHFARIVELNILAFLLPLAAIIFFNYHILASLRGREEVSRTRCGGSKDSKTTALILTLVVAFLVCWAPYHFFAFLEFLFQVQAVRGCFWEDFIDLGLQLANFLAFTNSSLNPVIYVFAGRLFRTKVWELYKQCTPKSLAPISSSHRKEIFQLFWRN
Put plainly: cynoBK1-receptor binding assay. Particulars: CHO cells expressing cynomolgus BK1-receptor, radioligand kallidine (DesArg10,Leu9); for inhibition at 10 µM: at 10 μgmol/L. The procedure: Description of the Method of Binding the cynoBK1-Receptor
CHO cells that express the cynomolgus BK1-receptor are cultivated in “HAM'S F-12 Medium”. The medium is removed from confluent cultures, the cells are washed with PBS buffer, scraped off or detached using Versene and isolated by centrifuging. Then the cells are homogenised in suspension, the homogenate is centrifuged and resuspended. After the protein content has been determined 200 μl of the homogenate (50 to 250 μg protein/assay) are incubated for 60-180 minutes at ambient temperature with 0.5 to 5.0 nM kallidine (DesArg10,Leu9), [3,4-Prolyl-3,43H(N)] and increasing concentrations of the test substance in a total volume of 250 μl. The incubation is stopped by rapid filtration through GF/B glass fibre filters that have been pre-treated with polyethyleneimine (0.3%). The radioactivity bound to the protein is measured with a TopCount NXT. The radioactivity bound in the presence of 1.0 μM kallidine (DesArg10) is defined as non-specific binding. The concentration binding curve may be analysed using computer-aided non-linear curve fitting to determine the corresponding Ki value for the test substance.
Test results of the cynoBK1-receptor binding assay: […]

Structures are written as SMILES. pKi: −log10 of the molar value.

As for `O=C(NC1(C(=O)NCc2ccc(Nc3cccc(Cl)c3Cl)cc2)CC1)c1cncnc1` [(1)], the inhibition at 10 µM is 54%.

For `O=C(NC1(C(=O)NCc2ccc(Nc3ccccc3Cl)cc2)CC1)c1cncnc1` [(2)], the pKi was 7.60 and the inhibition at 10 µM amounted to 100%. Consider `O=C(NC1(C(=O)NCc2ccc(Nc3ccccc3)cc2)CC1)c1cncnc1` [(3)], for which the inhibition at 10 µM worked out at 65%. Still for that read-out and setting: for `O=C(NC1(C(=O)NCc2ccc(Nc3ccccc3C(F)(F)F)cc2)CC1)c1cncnc1` [(4)] the value was 109%; for `O=C1CCC(C(=O)NC2(C(=O)NCc3ccc(Nc4ccccc4C(F)(F)F)cc3)CC2)N1` (centres unmarked) [(5)], 88%; for `CN(C)CCCC(=O)NC1(C(=O)NCc2ccc(Nc3ccccc3C(F)(F)F)cc2)CC1` [(6)], 59%.

Take `O=C(CC(F)(F)F)NC1(C(=O)NCc2ccc(Nc3ccccc3C(F)(F)F)cc2)CC1` [(7)]: the inhibition at 10 µM is 100%. Still for that read-out and setting: for `CN(C)CCC(=O)NC1(C(=O)NCc2ccc(Nc3ccccc3C(F)(F)F)cc2)CC1` [(8)] the value was 75%; for `O=C(NC1(C(=O)NCc2ccc(Nc3ccccc3C(F)(F)F)cc2)CC1)c1cnc(O)nc1O` [(9)], 78%; for `CN(C)CCCCC(=O)NC1(C(=O)NCc2ccc(Nc3ccccc3C(F)(F)F)cc2)CC1` [(10)], 58%. As for `O=C(NC1(C(=O)NCc2ccc(Nc3ccccc3C(F)(F)F)cc2)CC1)c1cccnc1` [(11)], the inhibition at 10 µM came out at 99%. As to `CN(C)CC(=O)NC1(C(=O)NCc2ccc(Nc3ccccc3C(F)(F)F)cc2)CC1` [(12)], the inhibition at 10 µM is 78%. Consider `CCC(=O)NC1(C(=O)NCc2ccc(Nc3ccccc3C(F)(F)F)cc2)CC1` [(13)], for which the inhibition at 10 µM was determined as 101%. As for `COCC(=O)NC1(C(=O)NCc2ccc(Nc3ccccc3C(F)(F)F)cc2)CC1` [(14)], the inhibition at 10 µM amounted to 84%. Consider `O=C(NC1(C(=O)NCc2ccc(Nc3ccccc3C(F)(F)F)cc2)CC1)C1CC1` [(15)], for which the inhibition at 10 µM worked out at 99%. With `CCCCC(=O)NC1(C(=O)NCc2ccc(Nc3ccccc3C(F)(F)F)cc2)CC1` [(16)], the inhibition at 10 µM turned out to be 91%. Take `Cn1cnc(C(=O)NC2(C(=O)NCc3ccc(Nc4ccccc4C(F)(F)F)cc3)CC2)c1` [(17)]: the inhibition at 10 µM amounted to 75%.

Regarding `Cn1ccnc1C(=O)NC1(C(=O)NCc2ccc(Nc3ccccc3C(F)(F)F)cc2)CC1` [(18)], the inhibition at 10 µM amounted to 67%. With `O=C(CC1CC1)NC1(C(=O)NCc2ccc(Nc3ccccc3C(F)(F)F)cc2)CC1` [(19)], the inhibition at 10 µM came to 96%. With `O=C(NC1(C(=O)NCc2ccc(Nc3ccccc3C(F)(F)F)cc2)CC1)c1ccccc1` [(20)], the inhibition at 10 µM is 81%. For the compound `O=C(NC1(C(=O)NCc2ccc(Nc3ccccc3C(F)(F)F)cc2)CC1)c1ccccn1` [(21)], the inhibition at 10 µM was determined as 68%. In the case of `CN1CCC(C(=O)NC2(C(=O)NCc3ccc(Nc4ccccc4C(F)(F)F)cc3)CC2)CC1` [(22)], the inhibition at 10 µM amounted to 60%. As for `O=C(NC1(C(=O)NCc2ccc(Nc3ccccc3C(F)(F)F)cc2)CC1)C(F)(F)F` [(23)], the inhibition at 10 µM is 110%. For `O=C(NC1(C(=O)NCc2ccc(Nc3ccccc3C(F)(F)F)cc2)CC1)c1ccno1` [(24)], the inhibition at 10 µM came to 107%.

As to `CC(NC(=O)C1(NC(=O)c2cncnc2)CC1)c1ccc(Nc2ccc(OC(F)F)cc2)cc1` (centres unmarked) [(25)], the inhibition at 10 µM worked out at 86%. For the compound `O=C(NC1(C(=O)NCc2ccc(Nc3ccccc3C(F)(F)F)cc2)CC1)c1cncc(C(F)(F)F)c1` [(26)], the inhibition at 10 µM worked out at 109%. Turning to `Cc1nnc(C(=O)NC2(C(=O)NCc3ccc(Nc4ccccc4C(F)(F)F)cc3)CC2)o1` [(27)], the inhibition at 10 µM turned out to be 104%.

As to `O=C(NC1(C(=O)NCc2ccc(Nc3ccc(F)cc3C(F)(F)F)cc2)CC1)c1cncs1` [(29)], the negative logarithm of the Ki (pKi) is 8.21 and the inhibition at 10 µM worked out at 113%. Take `O=C(CC(F)(F)F)NC1(C(=O)NCc2ccc(Nc3ccc(F)cc3C(F)(F)F)cc2)CC1` [(30)]: the pKi is 7.89 and the inhibition at 10 µM was determined as 111%. As to `O=C(NC1(C(=O)NCc2ccc(Nc3ccc(F)cc3C(F)(F)F)cc2)CC1)c1ccno1` [(31)], the pKi was 7.89 and the inhibition at 10 µM came to 112%. With `CS(=O)(=O)c1ccc(Nc2ccc(CNC(=O)C3(NC(=O)c4cncnc4)CC3)cc2)c(C(F)(F)F)c1` [(32)], the pKi is 6.70 and the inhibition at 10 µM was 93%. As to `O=C(NC1(C(=O)NCc2ccc(Nc3ccc(F)cc3C(F)(F)F)cc2)CC1)c1cncnc1` [(33)], the pKi is 8.72 and the inhibition at 10 µM is 110%. For the compound `O=C(Cc1cncnc1)NC1(C(=O)NCc2ccc(Nc3ccccc3C(F)(F)F)cc2)CC1` [(34)], the pKi was less than 6.30 and the inhibition at 10 µM amounted to 94%. In the case of `N#Cc1ccccc1Nc1ccc(CNC(=O)C2(NC(=O)c3cncnc3)CC2)cc1` [(35)], the pKi was 7.15 and the inhibition at 10 µM is 111%. Take `N#Cc1cc(F)ccc1Nc1ccc(CNC(=O)C2(NC(=O)c3cncnc3)CC2)cc1` [(36)]: the pKi is 7.68 and the inhibition at 10 µM turned out to be 113%. Regarding `O=C(NC1(C(=O)NCc2ccc(Nc3ccc(F)cc3)cc2)CC1)c1cncnc1` [(37)], the negative-log Ki (pKi) is less than 6.30 and the inhibition at 10 µM was 77%.

On to `O=C(NC1(C(=O)NCc2ccc(Nc3ccccc3C(F)(F)F)cn2)CC1)c1cncnc1` [(39)], for which the pKi is 8.26 and the inhibition at 10 µM turned out to be 110%. Taken in the same sequence, the figures for `CC(NC(=O)C1(NC(=O)c2cncnc2)CC1)c1ccc(Nc2ccccc2C(F)(F)F)cn1` (centres unmarked) [(40)] were 8.54 and 110%. On to `O=C(NC1(C(=O)NCc2ccc(Nc3ccc(F)cc3C(F)(F)F)cn2)CC1)c1cncnc1` [(41)], for which the pKi is 8.59 and the inhibition at 10 µM stood at 108%.

With `O=C(NC1(C(=O)NCc2ccc(Nc3cc(F)ccc3C(F)(F)F)cn2)CC1)c1cncnc1` [(42)], the inhibition at 10 µM is 89%.

Consider `O=C(N[C@@]1(C(=O)NCc2ccc(Nc3ccc(F)cc3C(F)(F)F)cn2)CCOC1)c1cncnc1` [(43)], for which the pKi is 7.44 and the inhibition at 10 µM stood at 94%. With `O=C(NC1(C(=O)NCc2ccc(Nc3c(F)cccc3C(F)(F)F)cn2)CC1)c1cncnc1` [(44)], the pKi was 8.15 and the inhibition at 10 µM came out at 109%. On to `CC(NC(=O)C1(NC(=O)c2cncnc2)CC1)c1ccc(Nc2ccc(F)cc2C(F)(F)F)cn1` (centres unmarked) [(45)], for which the pKi is 8.70 and the inhibition at 10 µM was 104%. Taken in the same sequence, the figures for `O=C(N[C@@]1(C(=O)NCc2ccc(Nc3c(F)cccc3C(F)(F)F)cn2)CCOC1)c1cncnc1` [(46)] were 6.54 and 88%. As to `CC(NC(=O)[C@]1(NC(=O)c2cncnc2)CCOC1)c1ccc(Nc2ccc(F)cc2C(F)(F)F)cn1` (some centres unmarked) [(47)], the pKi was 7.41 and the inhibition at 10 µM came out at 94%. Regarding `O=C(N[C@@]1(C(=O)NCc2ccc(Nc3cc(F)ccc3C(F)(F)F)cn2)CCOC1)c1cncnc1` [(48)], the inhibition at 10 µM was found to be 71%.

In the case of `Cc1cccc(C(F)(F)F)c1Nc1ccc(CNC(=O)C2(NC(=O)c3cncnc3)CC2)nc1` [(49)], the pKi was 6.44 and the inhibition at 10 µM was 103%. Take `COc1ccc(Nc2ccc(CNC(=O)C3(NC(=O)c4cncnc4)CC3)nc2)c(C(F)(F)F)c1` [(50)]: the pKi is 9.15 and the inhibition at 10 µM worked out at 115%.

As a reminder, the inhibition is the relative decrease from the control value, in per cent. As usually defined, the pKi is −log10 of the Ki, conventionally taken in molar units.
